Data as given in patent US9206229B2, “Bortezomib esters and formulations thereof” (CHEMI S.P.A., priority 2012, dated 2015).
Read-outs that look alike come from different tables or passages of the source.

Columns and labels:
[1] = Stability tests of (5+5) bis bortezomib tartrate III in solid form (HPLC purity); format: physicochemical
Description: (5+5) Bis-bortezomib tartrate III, prepared as described in example 2, and the solid formulations containing (5+5) bis-bortezomib tartrate III, prepared as described in examples 3 and 4, were put into glass vials with screw plug and hermetic closure and undergone stability tests under the following conditions: […]
temperature 25° C. and 60% relative humidity temperature 40° C. and 75% relative humidity
The HPLC method used for the purity analysis was the following:
• UV Detector: SPD 10AVP • auto-sampler: SIL-ADVP Wavelength: 270 nm Column: Biobasic-18-Peek Bio-inert • length: 250 mm • I.D.: 2.1 mm • Particle size: 5 μm • (thermo scientific Cat.N.72105-252168 or equivalent) Injection: 3 μl Column temperature: room Sampler temperature: room Flow rate: 0.3 ml/min Mobile phase: eluent A: 95% gradient • Eluent B: 5% Analysis time: 60 minutes Eluent A: 0.1% v/v formic acid in water for HPLC Eluent B: 0.1% v/v formic acid in acetonitrile for gradient Diluent: acetonitrile:water for HPLC=80:20 Blank: diluent Gradient program:
Weigh about 50 mg sample and transfer the substance into a 100 ml flask. Dissolve and bring to volume with diluent. Sonicate up to complete dissolution (analyte content about 0.5 mg/ml).
Calculate the percentage of each known and unknown impurity as percentage area by using the following formula (peaks of the blank and peaks with area <0.05% to be ignored).
[formula] Axc: peak area of the impurity in the sample Atot: total area of the peaks of the chromatogram Purity(A%)=100−Σ1Imp (i) The peak corresponding to bortezomib is eluted at 28 minutes±2.
In the following tables the data obtained from the stability tests after two and four weeks are reported.

[2] = Stability tests of powders stored at 40° C. for months (examples 12, 14, 17), HPLC purity; format: physicochemical; conditions: powder
Description: Samples of the powder obtained in example 11 were stored in glass vials with screw cap and hermetic closure and undergone stability tests at 40° C. and 75% relative humidity. Their purity was checked during the time. In the following table the purity data of the samples under stability test obtained by using the HPLC method described in example 9 are reported.
Samples of the powder obtained in example 13 were stored in glass vials with screw cap and hermetic closure and undergone stability tests at 40° C. and 75% relative humidity. In the following table the purity data obtained by using the HPLC method described in example 9 are reported.
In the following table the data of the HPLC purity analysis of the powder at time 0 and after 1 month, 2 months and 3 months of storage in glass vials with screw plug and hermetic closure at 40° C. are reported.

[3] = cited from earlier work
[4] = 2 weeks 25° C., 60% relative humidity
[5] = 2 weeks 40° C., 75% relative humidity
[6] = 2 months 40° C. (75% relative humidity stated in examples 12, 14)
[7] = 3 months 40° C. (75% relative humidity stated in examples 12, 14)
[8] = 1 month 40° C. (75% relative humidity stated in examples 12, 14)

Row | Compound | HPLC peak area, relative retention time 0.87 (retention time 23.58 min) [2, 6] [A%] | HPLC peak area, relative retention time 1.037 (retention time 28.00 min) [2, 6] [A%] | HPLC peak area, relative retention time 1.07 (retention time 28.77 min) [2, 6] [A%] | HPLC purity, peak at relative retention time 1.00 (retention time 27.00 min) [2, 6] [A%] | HPLC peak area, relative retention time 0.87 (retention time 23.58 min) [2, 7] [A%] | HPLC peak area, relative retention time 0.95 (retention time 25.78 min) [2, 7] [A%] | HPLC peak area, relative retention time 1.037 (retention time 28.00 min) [2, 7] [A%] | HPLC purity, peak at relative retention time 1.00 (retention time 27.00 min) [2, 7] [A%] | HPLC peak area, relative retention time 1.037 (retention time 28.00 min) ([2]; t0) [A%] | HPLC purity, peak at relative retention time 1.00 (retention time 27.00 min) ([2]; t0) [A%] | further results
1 | CC(C)C[C@H](NC(=O)C(Cc1ccccc1)NC(=O)c1cnccn1)B1OC(=O)C(C2OB([C@H](CC(C)C)NC(=O)C(Cc3ccccc3)NC(=O)c3cnccn3)OC2=O)O1 (stereo partly drawn) [Example 2, (5+5) Bis-Bortezomib L-Tartrate III] | – | – | – | – | – | – | – | – | – | – | HPLC peak area, relative retention time 0.91 (retention time 24.57 min) [1, 4]: 0.02 A%; HPLC peak area, relative retention time 0.95 (retention time 25.78 min) [1, 4]: 0.02 A%; HPLC peak area, relative retention time 1.07 (retention time 28.77 min) [1, 4]: 0.01 A%; HPLC purity, peak at relative retention time 1.00 (retention time 27.00 min) [1, 4]: 99.94 A%; HPLC peak area, relative retention time 0.95 (retention time 25.78 min) [1, 5]: 0.18 A%; HPLC peak area, relative retention time 1.07 (retention time 28.77 min) [1, 5]: 0.01 A%; HPLC purity, peak at relative retention time 1.00 (retention time 27.00 min) [1, 5]: 99.82 A%; HPLC peak area, relative retention time 0.91 (retention time 24.57 min) ([1]; t0): 0.02 A%; HPLC peak area, relative retention time 0.95 (retention time 25.78 min) ([1]; t0): 0.07 A%; HPLC peak area, relative retention time 1.07 (retention time 28.77 min) ([1]; t0): 0.01 A%; HPLC purity, peak at relative retention time 1.00 (retention time 27.00 min) ([1]; t0): 99.90 A%
2 | CC(C)C[C@H](NC(=O)C(Cc1ccccc1)NC(=O)c1cnccn1)B1OC(=O)C(C2OB([C@H](CC(C)C)NC(=O)C(Cc3ccccc3)NC(=O)c3cnccn3)OC2=O)O1 (stereo partly drawn) [Example 11, (5+5) Bis Bortezomib L-Tartrate III] | 0.15 | 0.02 | 0.04 | 99.67 | 0.66 | 0.07 | 0.38 | 98.72 | 0.01 | 99.99 | HPLC peak area, relative retention time 1.07 (retention time 28.77 min) [2, 7]: 0.18 A%
3 | CC(C)C[C@H](NC(=O)[C@H](Cc1ccccc1)NC(=O)c1cnccn1)B1OC(=O)[C@@H]([C@H]2OB([C@H](CC(C)C)NC(=O)[C@H](Cc3ccccc3)NC(=O)c3cnccn3)OC2=O)O1 [Example 13, (5+5) Bis Bortezomib L-Tartrate III] | 0.61 | 0.34 | 0.13 | 98.85 | 0.07 | 0.04 | 0.02 | 99.85 | 0.02 | 99.94 | HPLC peak area, relative retention time 0.87 (retention time 23.58 min) [2, 8]: 0.05 A%; HPLC peak area, relative retention time 1.037 (retention time 28.00 min) [2, 8]: 0.02 A%; HPLC purity, peak at relative retention time 1.00 (retention time 27.00 min) [2, 8]: 99.93 A%; HPLC peak area, relative retention time 0.95 (retention time 25.78 min) [2, 6]: 0.07 A%; HPLC peak area, relative retention time 0.87 (retention time 23.58 min) ([2]; t0): 0.02 A%
4 | CC(C)C[C@H](NC(=O)[C@H](Cc1ccccc1)NC(=O)c1cnccn1)B(O)O [bortezomib] | – | – | – | – | – | – | – | – | – | – | time for which stable on storage ([3]; stored at 2-8° C.): 3-6 months; HPLC purity ([3]; stored at −20° C. for more than 2 years): > 97%; time for which stable on storage ([3]; stored at −20° C.): more than 2 years
